Consider four compounds from patent publication US20070082870A1, “Pharmaceutical formulations of cyclodextrins and antifungal azole compounds” (priority 2005, published 2007).

≈ marks a conversion by molar mass, not a printed value.

Series [1] can be described thus: Equilibrium solubility of itraconazole in water and buffers at 10 wt % cyclodextrin. The format is physicochemical. The settings on record: water. The procedure:
Stock solutions of cyclodextrins were prepared by dissolving an accurately weighed amount of previously dried cyclodextrin in water or in buffer to give a final cyclodextrin concentration of 10 wt %. In this example, the cyclodextrins were HBenBCD, HPBCD, and SBEBCD. The buffers were 0.05 M pH3 phosphate, 0.05 M pH 3 citrate, and 0.05 M pH 4.8 acetate.
(§1) The following is a typical procedure for determining the solubility of a drug in a given solvent. To each well of a 2 mL 96-well polypropylene mixing plate was added excess drug (ca. 5-10 mg). The drug was typically added by using a metal loading plate having cavities that will hold an approximate predetermined amount of drug. The cavities on the loading plate were arranged so that they corresponded to the individual wells of the 96-well mixing plate. A line of drug was placed at one end of the loading plate and a glass plate was used to distribute the drug into each cavity. The 96-well mixing plate was placed on the loading plate then inverted and tapped so that the drug dropped into the appropriate well of the mixing plate.
(§2) To each well of the pre-loaded 96-well mixing plate was added 300-500 μL of water or buffer (blanks with no CD) or the appropriate CD solution. Typically, each determination was in triplicate. The blanks were used to determine the intrinsic solubility (So) of drug in that solution and the well containing the CD solutions were used to determine the solubility of drug due to CD (Sw). After addition of the stock solutions, the plate was sealed using aluminum foil with a non-volatile adhesive on one surface. The plate was placed on a rotary shaking plate (Helidolph Titramax 1000) and the plate was shaken at 800-1200 rpm at 23° C.±2° for 48-72 h. During the mixing period, the plate was inspected to insure that each well contained undissolved, excess drug. Additional drug was added if necessary.
(§3) Following the mixing period, the solutions in each well were transferred to the corresponding wells of a 96-well 2 mL multiscreen filter plate using a multi-channel pipette. The bottom of each well was a hydrophilic membrane (Millipore Corporation). The filter plate was placed on top of a vacuum manifold and the solutions were filtered at ca. 20 mm Hg into the corresponding wells of a 2 mL storage plate. The duration of the filtration period was typically no more than 60 seconds. The storage plate was then sealed with a silicon mat and samples were removed for analysis as appropriate.
(§4) The drug content in each well can be determined by a number of methods. Ultraviolet spectroscopy (UV) or high pressure liquid chromatography (HPLC) is preferred. In the present example, UV spectroscopy was used. Typically, 10-20 μL of drug solution was transferred to the corresponding well of a 96-well measurement plate (UV-STAR plates from Greiner with a spectral range of 190-400 nm) and diluted with 1/1 water/ethanol so that the absorbance was in the linear response range. Measurements were made using a SpectraMax Plus 384 Molecular Devices multi-well plate reader. Absorbance was converted to drug concentration using the appropriate absorbtivity for the drug. The drug concentrations were then exported to the appropriate software package for final analysis.

A short description of series [2]: Equilibrium solubility of itraconazole in water and pH 3 phosphate buffer, 0 to 25 wt % cyclodextrin. The series is classed as physicochemical. The method, then:
as §1
(§5) To each well of the pre-loaded 96-well mixing plate was added 300-500 μL of water or buffer (blanks with no CD) or the appropriate CD solution. […]
(§6) The drug content in each well can be determined by a number of methods. […] Typically, 10-20 μL of drug solution was transferred to the corresponding well of a 96-well measurement plate (UV-STAR plates from Greiner with a spectral range of 190-400 nm) and diluted with 1/1 water/ethanol so that the absorbance was in the linear response range. Measurements were made using a SpectraMax Plus 384 Molecular Devices multi-well plate reader. Absorbance was converted to drug concentration using the appropriate absorbtivity for the drug. […]

The nature of series [3]: Equilibrium solubility of clotrimazole in water, 0 to ca. 25 wt % cyclodextrin. The series is classed as physicochemical. The procedure: as §1, §5, §6
The nature of series [4]: Equilibrium solubility of ketoconazole in water and buffers at 10 wt % HBenBCD. The series is classed as physicochemical. The method, then:
as §1, with “The drug was typically added by using a metal loading plate having cavities that will hold an approximate predetermined amount of drug.” left out
as §2, §3
The drug content in each well can be determined by a number of methods. Ultraviolet spectroscopy (UV) or high pressure liquid chromatography (HPLC) is preferred. In the present example, UV spectroscopy was used. […] Measurements were made using a SpectraMax Plus 384 Molecular Devices multi-well plate reader. Absorbance was converted to drug concentration using the appropriate absorbtivity for the drug. The drug concentrations were then exported to the appropriate software package for final analysis.
The general protocol described in Example 1 was utilized to determine the equilibrium solubility of ketoconazole in water and buffers at 10 wt % HBenBCD concentration.

The format of series [5] is physicochemical. The following applies: pH 3. The method, then: as §1, §5, §6
The next series can be described thus: physchem. The series is classed as physicochemical. The settings on record: for solubility: 23 °C, thermodynamic from solid. The method, then:
as §1, §2, §3, §4
The general protocol described in Example 1 was utilized to determine the equilibrium solubility of voriconazole in water and buffers at 10 wt % HBenBCD concentration.

As to itraconazole, the Sw/So worked out at 17.2 in series [1] (10 wt % HBenBCD), 3.8 in series [1] (10 wt % HPBCD), 4.2 in series [1] (10 wt % SBEBCD) and 132 in series [2] (ca. 25 wt % HBenBCD). Also, in series [1] (10 wt % HBenBCD), the “solubility of itraconazole due to CD (Sw)” value was 0.515 ng/mL. Besides, the “intrinsic solubility (So) of itraconazole” value in series [1] (no cyclodextrin) stood at 0.03 ng/mL. In series [2] (ca. 25 wt % CD), the “Sw/So for HBenBCD, fold greater than that for HPBCD” value is 4 X.
For `Clc1ccccc1C(c1ccccc1)(c1ccccc1)n1ccnc1` [clotrimazole], the “Sw/So for HBenBCD, fold greater than that for HPBCD” value in series [3] (ca. 25 wt % CD) came to 2.4 X. In addition, the Sw/So in series [3] (ca. 25 wt % HBenBCD) amounted to 12.3.
For the compound `CC(=O)N1CCN(c2ccc(OC[C@H]3CO[C@](Cn4ccnc4)(c4ccc(Cl)cc4Cl)O3)cc2)CC1` (racemic) [ketoconazole], the Sw/So in series [4] (pH 3 D,L-tartrate) is given as 2.7; in series [4] (pH 3 D-tartrate), 3.2; in series [4] (pH 3 L-tartrate), 2.8; in series [4] (pH 3 citrate), 3.3; in series [4] (pH 3 phosphate), 4.3; in series [4] (pH 4.8 acetate), 95.5. Also, the Sw/So in series [4] (pH 7.3 phosphate) is listed as 548.9; in series [4] (water), 600.4.
Turning to `C[C@@H](c1ncncc1F)[C@](O)(Cn1cncn1)c1ccc(F)cc1F` (single isomer, unassigned) [voriconazole], in series [5], the “more voriconazole solubilized by HBenBCD than SBEBCD” value was 25%. Besides, the Sw/So is recorded as 9.8 in the series “physchem”, 3.2 in the series “physchem” (pH 1.2) and 9.6 in the series “physchem” (pH 7.3). The solubility – broadly, the dissolved amount per volume that the medium holds – in the series “physchem” (pH 1.2, aqueous with cosolvent or surfactant or cyclodextrin, Sw (solubility with CD)) is 10.2 mg/mL (≈ 29.2 mM); in “physchem” (pH 1.2, simulated gastric fluid, So (intrinsic solubility)), 3.2 mg/mL (≈ 9.16 mM).
